How the values were obtained:
[1] = system: KB cells; assay: Inhibition of cell growth by total cell protein
Description: Cell culture and treatment. KB cells were maintained in folate-free medium containing 10% serum (See, e.g., Quintana et al, Pharm. Res. 19, 1310 (2002)) to provide extracellular FA similar to that found in human serum. Cells were plated in 12-well plates for uptake studies, in 24-well plates for cell growth analysis, and in 96-well plates for XTT assay. Cells were rinsed with FA-free medium containing dialyzed serum and incubated at 37° C. with dendrimer-drug conjugates for the indicated time periods and concentrations. KB cells were also maintained in RPMI medium containing 2 μM FA to obtain cells which express low FAR.
Evaluation of dendrimer cytotoxicity. Cell growth was determined by assay of the total protein in lysates of treated cells using a bicinchoninic acid reagent (PIERCE, and by XTT assay, using a kit from Roche.
Time course and dose dependent inhibition of cell growth. Previous studies have shown that MTX-induced cytotoxicity is detectable in vitro only if the medium is completely deprived of FA (See, e.g., Sobrero & Bertino, Int. J. Cell Cloning 4, 51 (1986)). The effect of the trifunctional dendrimers on cell growth was tested in cells incubated in a FA-deficient medium. Cells were treated with 300 nM conjugates (equivalent of 1500 nM MTX) or 1500 nM free MTX for 1-4 days, and cell proliferation was determined by estimation of cellular protein content. Cells were treated for 2 days with different concentrations of the conjugates or free MTX (the conjugate concentration is given as MTX equivalents, with 5 MTX per dendrimer molecule). KB cells which express high and low FAR were incubated with 30 nM of the dendrimers for 1 hr at 37° C., rinsed, and the fluorescence of cells was determined by flow cytometric analysis (See. e.g., FIG. 21, left panel).
KB cells were treated with 150 or 500 nM MTX in the presence or absence of equimolar concentrations of free FA for 24 h. […] The cells were rinsed to remove the drugs and incubated with fresh medium for an additional 6 d, and total cell protein was determined.

[2] = Stability of dendrimer in cell culture medium (MTX release; ultrafiltration, XTT readout); assay type: physicochemical
Description: The stability of the dendrimer was tested in cell culture medium to check if MTX was released from the dendrimer prior to its entry into the cells. The G5-FITC-FA-MTX was incubated with cell culture medium for 1, 2, 4 and 24 h, and the incubation medium was filtered using a 10,000-MW cutoff ultrafiltration device. The effect of the retentate and the filtrate on the growth of the KB cells was tested. G5-FITC-FA-MTX was incubated with medium at 2 μM concentration for 24 h. The incubation medium was filtered through a Centricon 10K-MW cutoff filter. The retentate (adjusted to pre-filtration volume) and the filtrate were incubated with KB cells (at 200 nM conjugate, as determined from the concentration of the pre-filtration sample) for 2 days and the XTT assay was performed. Similar results were obtained for the retentate and filtrate obtained from the medium that had been pre-incubated with the dendrimers for 1, 2, and 4 hours. […] There was a slow release of the MTX after 24 h, reaching a maximum of 40-50% release in 1 week.

[3] = system: s.c. human KB xenografts; assay: Targeted drug delivery, tumor growth and survival in SCID mice with KB xenografts; assay type: in vivo, SCID CB-17 mice
Description: Recipient animal and tumor model.
Delivery of targeted nanoparticle therapeutic. Twice weekly, SCID mice with s.c. KB xenografts, starting on day 4 after tumor implantation, received via the tail vein an injection of either targeted or nontargeted conjugate containing methotrexate, a conjugate without methotrexate, free methotrexate, or saline as a control. The compounds were delivered in a 0.2 mL volume of saline per 20 g of mouse. The single dose of methotrexate delivered each time equaled 0.33 mg/kg. The higher doses of 1.67 and 3.33 mg/kg free methotrexate were also tested. The conjugates were delivered at equimolar concentration of methotrexate calculated based on the number of methotrexate molecules present in a nanoparticle. The conjugate without methotrexate was delivered at equimolar concentration of dendrimer. In the initial trial, six groups of mice with five mice in each group received up to 15 injections. In the follow-up trial, mice received up to 28 injections dependent on their survival. The body weights of the mice were monitored throughout the experiment as an indication of adverse effects of the drug. Histopathology of multiple organs was done at the termination of each trial and each time mouse had to be euthanized due to toxic effects or tumor burden. Tissues from lung, heart, liver, pancreas, spleen, kidney, and tumor were analyzed. Additionally, cells were isolated from tumors, stained with targeted fluorescein-labeled conjugate, and tested for the presence of folic acid receptors using flow cytometer.
Targeted drug delivery to tumor cells through the folate receptor. The efficacy of different doses of conjugates was tested on SCID CB-17 mice bearing s.c. human KB xenografts and was compared with equivalent and higher doses of free methotrexate. Mice were maintained on the folic acid-deficient diet for 3 weeks before injection of the KB tumor cells to achieve circulating levels of folic acid that approach those in human serum and to prevent down-regulation of folate receptors on tumor xenografts (See, Mathias et al., J Nucl Med 29, 1579 (1998)). Six groups of SCID mice with five mice in each group were injected s.c. on one flank with 5×10^6 KB cells in 0.2 mL PBS suspension. The highest total dose of G5-FI-FA-MTX therapeutic used equals 55.0 mg/kg and is equivalent to a 5.0 mg/kg total cumulative dose of free methotrexate (FIG. 29). The therapeutic dose of the conjugate was compared with three cumulative doses of free methotrexate equivalent to 33.3, 21.7, and 5.0 mg/kg accumulated in 10 to 15 injections based on mouse survival. Saline and the conjugate without methotrexate (G5-FI-FA) were used as controls.

[4] = 2 μM, up to 24 h in medium, 10K-MW cutoff filter, KB cells 2 days, XTT

**Q.** For “G5-(Ac)82-(FITC)5-(FA)5-MTX5 [G5-FITC-FA-MTX]”, which “cytotoxicity compared with equimolar combinations of free FA and MTX” value ([1]; 30 and 100 nM conjugate (150 and 500 nM MTX), 24 h then 6 d) is on record?
**A.** similar

**Q.** What about the “inhibition of cell growth (FIGS. 21 and 22)” value ([1]; FA-deficient medium, 1-4 days, different concentrations) of the same substance?
**A.** inhibited cell growth in a time- and dose-dependent fashion

**Q.** What about the “cytotoxicity of filtrate after incubation in medium” value [2, 4] of the same substance?
**A.** failed to show any cytotoxicity

**Q.** What about the “cytotoxicity of retentate after incubation in medium” value [2, 4] of the same substance?
**A.** cytotoxic

**Q.** And the “release of MTX, maximum” value ([2]; slow release after 24 h, in 1 week)?
**A.** 40-50%

**Q.** And the “effect on tumor growth” value ([3]; first trial, up to 15 injections, cumulative 5.0 mg/kg methotrexate equivalents or equimolar dendrimer)?
**A.** as equally effective as the second highest dose of free methotrexate

**Q.** And the “survivors at the termination of the trial” value ([3]; second 99-day trial)?
**A.** two (of eight)

**Q.** And the “tumor growth versus G5-FI-MTX, free methotrexate or saline” value ([3]; second 99-day trial, P<0.05)?
**A.** slower growth of tumors
